Experiments:
[1] = Ring tensiometer
[2] = xn = mol fraction of the nth substance listed; details: Ring tensiometer

CCCCO [butan-1-ol]
[1]
Details | surface tension liquid-gas [mN/m]
288.15 K | 24.28
298.15 K | 23.48
308.15 K | 22.4
318.15 K | 21.64
328.15 K | 20.56

C[S+](C)[O-] [dimethyl sulfoxide]
[1]
Details | surface tension liquid-gas [mN/m]
288.15 K | 43.68
298.15 K | 42.18
308.15 K | 41.11
318.15 K | 39.99
328.15 K | 38.72

C[S+](C)[O-] [dimethyl sulfoxide] + CCCCO
surface tension liquid-gas [mN/m], [2]
Details | 288.15 K | 298.15 K | 308.15 K | 318.15 K | 328.15 K
x2 = 0.0373 | 39.63 | 38.43 | 38.16 | 36.84 | 36.19
x2 = 0.1042 | 36.3 | 35.44 | 34.43 | 33.54 | 32.99
x2 = 0.2136 | 32.33 | 32.03 | 30.37 | 30.79 | 29.37
x2 = 0.3353 | 30.13 | 29.72 | 28.82 | 28.06 | 27.19
x2 = 0.449 | 28.57 | 27.92 | 27.16 | 26.61 | 25.8
x2 = 0.5461 | 27.41 | 26.74 | 25.98 | 25.33 | 24.35
x2 = 0.614 | 26.65 | 26.06 | 25.27 | 24.55 | 23.85
x2 = 0.6643 | 26.18 | 25.55 | 24.84 | 23.98 | 23.3
x2 = 0.703 | 25.77 | 25.17 | 24.41 | 23.6 | 22.56
x2 = 0.8512 | 25.14 | 24.33 | 23.41 | 22.28 | 20.86
x2 = 0.9521 | 24.57 | 23.98 | 22.68 | 21.94 | 20.55

— the NIST ThermoML archive (doi:10.1016/j.jct.2013.04.009)
